From PubChem BioAssay (NCI)
Several values for one entry are separate records, joined by “and”; a condition that tells them apart may be missing. Equal entries are not always repeated.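 Method: 48-hour compound exposure of cells in 96-well plates, five concentrations, linear interpolation of endpoints. At the GI50, growth is halved. TGI: total growth inhibition.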

Tests used:
Test in all cases: NCI anticancer screen, dose series, 48 h
SK-MEL-2 melanoma = system: SK-MEL-2 melanoma
A549 NSCLC = system: A549 NSCLC
SF-539 CNS = system: SF-539 CNS
SK-MEL-5 melanoma = system: SK-MEL-5 melanoma
NCI-H460 lung = system: NCI-H460 lung
KM12 colon = system: KM12 colon
HS 578T breast = system: HS 578T breast
U251 CNS = system: U251 CNS
OVCAR-8 ovarian = system: OVCAR-8 ovarian
ACHN renal = system: ACHN renal

Row | Structure (SMILES) | GI50 (SK-MEL-2 melanoma) | TGI (SK-MEL-2 melanoma) | GI50 (A549 NSCLC) | TGI (A549 NSCLC) | GI50 (SF-539 CNS) | TGI (SF-539 CNS) | GI50 (SK-MEL-5 melanoma) | TGI (SK-MEL-5 melanoma) | GI50 (NCI-H460 lung) | TGI (NCI-H460 lung) | GI50 (KM12 colon) | TGI (KM12 colon) | GI50 (HS 578T breast) | TGI (HS 578T breast) | GI50 (U251 CNS) | TGI (U251 CNS) | GI50 (OVCAR-8 ovarian) | TGI (OVCAR-8 ovarian) | GI50 (ACHN renal) | TGI (ACHN renal)
1 | O=C(c1ccccc1)c1c2n(c3c1cc(O)c1ccccc13)CCN2 | 3.02 µM | 8.55 µM | 14.2 µM | 35.5 µM | 2.39 µM | 6.04 µM | 12.1 µM | 25.1 µM | 4.7 µM | 15.8 µM | 3.08 µM | 8.88 µM | 10.9 µM | > 100 µM | 1.78 µM | 3.4 µM | 2.7 µM | 7.67 µM | 13.5 µM | 33.1 µM
2 | CN1c2ccccc2S(=O)(=O)n2c(COc3ccccc3)nnc21 |  | > 100 µM |  | > 100 µM |  | > 100 µM |  | > 100 µM |  | > 100 µM |  | > 100 µM |  | > 100 µM |  | > 100 µM |  | > 100 µM |  | > 100 µM
3 | CNC(=O)c1cc(Oc2ccc3nc(NC(=O)Nc4cc(C(F)(F)F)cc(C(F)(F)F)c4)sc3c2)ccn1 | 1.05 µM | 3.13 µM | 1.3 µM | 2.67 µM | 1.24 µM | 2.8 µM | 0.593 µM | 2.09 µM | 1.23 µM | 2.85 µM | 0.444 µM | 2 µM | 1.65 µM | 4.84 µM | 1.02 µM | 2.2 µM | 1.33 µM | 2.69 µM | 0.542 µM | 1.98 µM
4 | CC(C)(N)C(=O)N[C@@H]1C(=O)N2[C@@H]1SC(C)(C)[C@@H]2C(=O)O |  | > 100 µM |  | > 100 µM |  | > 100 µM |  | > 100 µM |  | > 100 µM |  | > 100 µM |  | > 100 µM |  | > 100 µM |  | > 100 µM |  | > 100 µM
5 | CC/C(=C(/CC)c1ccc(O)cc1)c1ccc(O)cc1 | 9.23 µM | 26.7 µM | 4.59 µM | 20.5 µM | 5.84 µM | 19.7 µM | 3.02 µM | 12.9 µM | 4.05 µM | 15.2 µM | 3.64 µM | 12.9 µM | 4.17 µM | 32 µM | 4.91 µM | 18.2 µM | 7.9 µM | 37.1 µM | 6.07 µM | 18.3 µM
6 | NCCCCCCCCCn1c2c(c3ccccc3c1=O)C(=O)c1ccccc1-2 | 15.5 µM | > 50 µM | 9.75 µM | > 50 µM | 9.83 µM | 19.3 µM | 8.4 µM | 17.7 µM | 2.8 µM | 14.2 µM | 9.53 µM | 22.2 µM | 10.3 µM | 21.9 µM | 9.52 µM | 19.1 µM | 12.5 µM | > 50 µM | 8.2 µM | 17 µM
7 | COc1ccc(/C=C/C(=O)c2ccccc2)cc1OC |  | 32.2 µM and 35.3 µM | 30.5 µM | 47.7 µM and > 100 µM | 16.4 µM | 25.7 µM and 36.1 µM | 14.5 µM | 31.4 µM and 27.9 µM | 14.3 µM | 32.5 µM and 37.5 µM | 6 µM | 10.2 µM and > 100 µM | 42.3 µM | 65 µM and > 100 µM | 5.81 µM | 21.9 µM and 18.1 µM |  | 39.6 µM and 39.2 µM |  | 29.4 µM and 28.5 µM
8 | [Au+].c1c[n-]cn1.c1ccc([PH+](c2ccccc2)c2ccccc2)cc1 | 2.53 µM | 8.06 µM | 11.7 µM | 42.6 µM | 4.38 µM | 10.8 µM | 3.08 µM | 14.4 µM | 15.3 µM | 59.9 µM | 14.5 µM | 37.9 µM | 17.1 µM | > 100 µM | 3.77 µM | 26.2 µM | 9.28 µM | 37.1 µM | 6.19 µM | 17.6 µM
